This note sets out measurements from patent publication US11072619B2, “Pyrazole[1,5-a] pyrimidine derivatives as kinase JAK inhibitors” (CELON PHARMA S.A., priority 2017, dated 2021).

Test [1] has as its target Recombinant kinase JAK1 (Homo sapiens (Human), UniProt P23458). Nature of the test: In vitro JAK kinase inhibition assay (ADP-Glo), JAK1. The format is biochemical. The following applies: 30 μM ATP, peptide IRS-1, averaged. The method, then: (§1) In Vitro JAK Kinase Inhibition Assay
(§2) The effects of the compounds of the invention were analysed in vitro using kinase JAK inhibition assay described below.
(§3) Tested compounds were dissolved in 100% DMSO, and obtained stock solutions were serially diluted in the reaction buffer (50 mM Tris pH 7.5, 10 mM MgCl2, 0.25 mM EGTA, 0.1 mM Na3VO4, 0.01% Triton X-100, 2.5 mM DTT). Recombinant kinases JAK1 (ProQinase), JAK2, or JAK3 (Carna Biosciences) were diluted in the dilution buffer (50 mM Tris-HCl pH 7.5, 150 mM NaCl, 10% glycerol, 0.05% Triton X-100, 1 mM DTT) to the final concentration 3 ng/μL (JAK1), 0.1 ng/μL (JAK2), or 0.2 ng/μL (JAK3). 5 μL of obtained solution of the compounds and 5 μL of the solution of respective kinases were added to the well of a 96-well plate. To initiate interaction between tested compounds and an enzyme, the plate was incubated for 10 minutes at 25° C. in a Plate-Thermo-Shaker with orbital stirring at 400 rpm. Wells of a negative control contained all reagents as mentioned above with the exception of tested compounds and kinase, and wells of a positive controls contained all reagents as mentioned above with the exception of tested compounds. Enzymatic reaction was initiated by the addition of 15 μL of the following solution: 5× concentrated reaction buffer (50 mM Tris pH 7.5, 10 mM MgCl2, 0.25 mM EGTA, 0.1 mM Na3VO4, 0.01% Triton X-100, 2.5 mM DTT), water, 30 μM ATP and for particular kinases: JAK1—60 μM peptide IRS-1 (Enzo), JAK2 or JAK3—10 μM peptide IGF-1Rtide (Lipopharm). Then the plate was incubated for 1 hour at 25° C. in a Plate-Thermo-Shaker, with orbital stirring at 400 rpm. Detection of ADP formed in the enzymatic reaction was then performed using ADP-Glo Kinase Assay kit (Promega). For this purpose, to the well of the 96-well plate 25 μL of ADP-Glo Reagent were added, and the plate was incubated for 40 minutes at 25° C. in a Plate-Thermo-Shaker with orbital stirring at 400 rpm. Then to the well of the 96-well plate 50 μL of Kinase Detection Reagent were added and the plate was incubated for 30 minutes at 25° C. in a Plate-Thermo-Shaker with orbital stirring at 400 rpm. After incubation, luminescence intensity was measured using Victor×Light luminometer (Perkin Elmer, Inc.).
(§4) On the basis of luminescence measurement in wells containing tested compounds at various concentrations and in control wells, IC50 values were determined. These values were determined with Graph Pad software v. 5.03, by fitting points of the curve using non-linear regression method. Each compound was tested in at least 6 repetitions (6 wells) on two 96-well plates, using at least 3 wells of each control.
(§5) Averaged results of kinases JAK inhibition activity for selected compounds of the present invention are presented below in Table 1.
For orientation: ADP-Glo turns the ADP formed in a reaction into a luminescent signal.

Test [2] has as its target Recombinant kinase JAK3 (Homo sapiens (Human), UniProt P52333). Nature of the test: In vitro JAK kinase inhibition assay (ADP-Glo), JAK3. The format is biochemical. The conditions noted are these: 30 μM ATP, peptide IGF-1Rtide, averaged. The method, then: as §1, §2, §3, §4, §5
Test [3] has as its system TF-1 cells. The test is described as follows: TF-1 cells viability in vitro in the presence of IL-3 (JAK2 activation). The class given is cell-based. The conditions noted are these: Homo sapiens, 5 ng/mL IL-3, 72 hours, ATPlite, read-out: JAK2 IL3 (EC50, inhibition of viability of TF-1 cells). As to the method:
(§6) Assay for TF-1 Cells Viability In Vitro
(§7) The effects of the activity of the compounds of the invention were tested in vitro using cells viability assay described below.
Tested compounds were dissolved in 100% DMSO, and obtained stock solutions were serially diluted in OptiMEM medium (Reduced Serum Medium-Thermo Fisher Scientific). […] To a well of the 96-well plate 10 μL of the prepared 10× stock solutions of the compounds. Cells on 96-well plates were incubated with the compounds for 72 hours at 37° C., 5% CO2. Subsequently, viability of the cells was measured using ATPlite kit (Perkin Elmer). For this purpose, 50 μL of lysis buffer (mammalian cell lysis solution) were added to a well of the 96-well plate and the plate was incubated for 10 minutes at 25° C. in a plate thermo-shaker with orbital stirring at 600 rpm. Then to a well of the 96-well plate 50 μL of substrate (substrate solution) were added and incubated for 15 minutes at in dark, in a plate thermo-shaker with orbital stirring at 600 rpm. After incubation time, luminescence intensity in a well was measured using Victor×Light luminometer (Perkin Elmer, Inc.).
On the basis of luminescence intensity measurements in well containing tested compounds at various concentrations and in control wells EC50 values were determined. These values were determined with Graph Pad software v. […] Each compound was tested in at least 6 repetitions (6 wells) on two 96-well plates, using at least 3 wells of each control.
(Cellular ATP, detected with luciferase, serves as a proxy for viable cell number.)

Test [4] has as its system TF-1 cells. The test is described as follows: TF-1 cells viability in vitro in the presence of IL-4 (JAK1/JAK3 activation). The class given is cell-based. The conditions noted are these: Homo sapiens, TF-1; 20 ng/mL IL-4, 72 hours, ATPlite; read-out: JAK1,3 IL4 (EC50, inhibition of viability of TF-1 cells). As to the method:
as §6, §7
Tested compounds were dissolved in 100% DMSO, and obtained stock solutions were serially diluted in OptiMEM medium (Reduced Serum Medium-Thermo Fisher Scientific). TF-1 cells (DSMZ no.: ACC 334) in culture medium (80% RPMI 1640+20% FBS) ad in the presence of 5 ng/mL IL-3 or 20 ng/mL IL-4 were deposited on 96-well plates in the volume of 90 μl per well, 10 thousands of cells per well. To a well of the 96-well plate 10 μL of the prepared 10× stock solutions of the compounds. Cells on 96-well plates were incubated with the compounds for 72 hours at 37° C., 5% CO2. Subsequently, viability of the cells was measured using ATPlite kit (Perkin Elmer). For this purpose, 50 μL of lysis buffer (mammalian cell lysis solution) were added to a well of the 96-well plate and the plate was incubated for 10 minutes at 25° C. in a plate thermo-shaker with orbital stirring at 600 rpm. Then to a well of the 96-well plate 50 μL of substrate (substrate solution) were added and incubated for 15 minutes at in dark, in a plate thermo-shaker with orbital stirring at 600 rpm. After incubation time, luminescence intensity in a well was measured using Victor×Light luminometer (Perkin Elmer, Inc.).
On the basis of luminescence intensity measurements in well containing tested compounds at various concentrations and in control wells EC50 values were determined. These values were determined with Graph Pad software v. 5.03, by fitting points of the curve using non-linear regression method. Each compound was tested in at least 6 repetitions (6 wells) on two 96-well plates, using at least 3 wells of each control.

Test [5] has as its system STAT6 protein phosphorylation in TF-1 cells. The test is described as follows: STAT6 phosphorylation inhibition in vitro in TF-1 cells with IL-4. The format is cell-based. The following applies: Homo sapiens, IL-4 20 ng/mL, 1 hour, Western blot densitometry. The method, then: Assay of STAT6 Phosphorylation Inhibition In Vitro
The activity of the compounds of the invention was tested using in vitro assay described below.
Tested compounds were dissolved in 100% DMSO, and obtained stock solutions were serially in OptiMEM medium (Reduced Serum Medium-Thermo Fisher Scientific). TF-1 cells (DSMZ no.: ACC 334) in culture medium (80% RPMI 1640+20% FBS) in the presence of IL-4 at 20 ng/mL were sieved on 12-well plates at 900 μl/well, 700 thousands of cells/well. To a well of the 12-well plate 100 μL of obtained 10× solution of the compounds were added. Cells on 12-well plates were incubated with tested compounds for 1 hour at 37° C., 5% CO2. Subsequently the cells were washed with PBS, lysed in RIPA buffer added with EDTA, proteases and phosphatases inhibitors, and incubated for 5 min on ice. Protein concentration was determined using Pierce BCA Protein Assay Kit (Thermo Fisher Scientific). Protein lysates were separated by electrophoresis (SDS-PAGE) on 8% polyacrylamide gels, then wet-transferred on nitrocellulose membrane and tested proteins were detected in accordance with the instructions of antibody manufacturer.
On the basis of the measurement of chemoluminescence intensity densitometric analysis was performed, results obtained for the cells treated with tested compounds at various concentrations were compared with those obtained for control cells, and IC50 values were determined.
These values were determined with Graph Pad software v. 5.03, by fitting points of the curve using non-linear regression method. Each compound was tested in at least 3 repetitions.
A general note: Immunoblotting shows a protein as a band on a membrane.

Recombinant kinase JAK3, sequence (P52333 whole entry): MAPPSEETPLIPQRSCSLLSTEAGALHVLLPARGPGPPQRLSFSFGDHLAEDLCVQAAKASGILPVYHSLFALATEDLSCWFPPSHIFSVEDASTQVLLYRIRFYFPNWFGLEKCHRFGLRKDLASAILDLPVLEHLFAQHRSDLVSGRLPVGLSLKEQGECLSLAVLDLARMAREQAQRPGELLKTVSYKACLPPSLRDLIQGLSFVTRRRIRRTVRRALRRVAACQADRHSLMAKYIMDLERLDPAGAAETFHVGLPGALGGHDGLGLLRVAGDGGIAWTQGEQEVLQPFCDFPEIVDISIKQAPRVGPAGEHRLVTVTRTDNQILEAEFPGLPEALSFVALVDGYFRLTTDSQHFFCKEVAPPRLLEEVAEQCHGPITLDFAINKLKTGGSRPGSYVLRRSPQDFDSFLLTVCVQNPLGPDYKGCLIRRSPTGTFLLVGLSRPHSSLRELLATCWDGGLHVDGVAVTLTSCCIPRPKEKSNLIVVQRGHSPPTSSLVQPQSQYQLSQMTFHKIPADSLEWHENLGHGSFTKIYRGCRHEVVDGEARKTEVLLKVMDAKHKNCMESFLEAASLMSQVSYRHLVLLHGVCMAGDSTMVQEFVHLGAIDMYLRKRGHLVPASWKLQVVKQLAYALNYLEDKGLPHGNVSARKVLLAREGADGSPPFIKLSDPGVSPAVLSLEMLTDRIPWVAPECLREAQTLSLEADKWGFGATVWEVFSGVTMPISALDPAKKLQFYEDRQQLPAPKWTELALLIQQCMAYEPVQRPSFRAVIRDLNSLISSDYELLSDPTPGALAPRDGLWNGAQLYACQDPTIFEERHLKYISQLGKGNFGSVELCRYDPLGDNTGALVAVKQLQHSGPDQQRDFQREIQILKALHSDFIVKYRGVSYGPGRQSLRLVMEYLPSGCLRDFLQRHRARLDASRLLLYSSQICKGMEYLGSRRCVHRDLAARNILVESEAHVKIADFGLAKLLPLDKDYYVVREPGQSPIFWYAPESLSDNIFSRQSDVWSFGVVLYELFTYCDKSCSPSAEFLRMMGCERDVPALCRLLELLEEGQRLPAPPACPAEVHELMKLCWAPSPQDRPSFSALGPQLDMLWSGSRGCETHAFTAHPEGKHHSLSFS
Recombinant kinase JAK1, sequence (P23458 whole entry): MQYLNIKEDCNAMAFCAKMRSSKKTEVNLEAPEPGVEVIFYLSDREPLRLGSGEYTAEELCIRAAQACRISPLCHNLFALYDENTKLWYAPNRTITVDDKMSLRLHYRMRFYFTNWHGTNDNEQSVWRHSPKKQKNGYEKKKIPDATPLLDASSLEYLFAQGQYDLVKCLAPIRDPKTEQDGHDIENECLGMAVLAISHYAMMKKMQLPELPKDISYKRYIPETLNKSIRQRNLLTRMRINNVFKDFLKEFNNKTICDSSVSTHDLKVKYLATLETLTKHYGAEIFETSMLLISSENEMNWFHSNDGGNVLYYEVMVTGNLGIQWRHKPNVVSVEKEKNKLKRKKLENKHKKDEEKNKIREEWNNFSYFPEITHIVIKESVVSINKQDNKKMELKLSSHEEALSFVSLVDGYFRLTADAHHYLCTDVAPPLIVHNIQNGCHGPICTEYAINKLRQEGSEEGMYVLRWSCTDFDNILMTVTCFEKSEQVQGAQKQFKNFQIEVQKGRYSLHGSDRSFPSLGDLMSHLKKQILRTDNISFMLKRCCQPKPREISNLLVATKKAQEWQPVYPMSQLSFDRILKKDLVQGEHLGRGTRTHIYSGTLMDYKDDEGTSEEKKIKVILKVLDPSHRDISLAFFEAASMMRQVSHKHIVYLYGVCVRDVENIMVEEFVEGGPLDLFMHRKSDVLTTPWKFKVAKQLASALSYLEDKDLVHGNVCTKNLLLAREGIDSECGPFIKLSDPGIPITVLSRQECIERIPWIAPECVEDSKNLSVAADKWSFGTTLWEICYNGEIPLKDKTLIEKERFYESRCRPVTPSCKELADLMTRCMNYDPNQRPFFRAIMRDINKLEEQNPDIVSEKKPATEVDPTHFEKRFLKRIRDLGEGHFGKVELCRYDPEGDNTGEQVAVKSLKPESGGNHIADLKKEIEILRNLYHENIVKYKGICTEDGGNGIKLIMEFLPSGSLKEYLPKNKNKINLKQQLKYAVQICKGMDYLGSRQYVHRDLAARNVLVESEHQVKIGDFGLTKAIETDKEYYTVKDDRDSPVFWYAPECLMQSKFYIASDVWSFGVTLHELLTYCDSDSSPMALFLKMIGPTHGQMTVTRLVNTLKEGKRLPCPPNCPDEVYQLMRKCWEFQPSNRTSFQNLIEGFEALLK

For the molecule `CC1(C)CN(c2ccc(C#N)nn2)CC[C@H]1Nc1c(C(N)=O)cnc2cc(-c3ccnc(N4CCOCC4)c3)nn12` [Example 13, (R)-7-((1-(6-Cyanopyridazin-3-yl)-3,3-dimethylpiperidin-4-yl)amino)-2-(2-morpholinopyridin-4-yl)pyrazolo[1,5-a]pyrimidine-6-carboxamide], the IC50 is 0.51 nM in test [1]; 0.2 nM in test [2]; 1120 nM in test [3]; 202 nM in test [4]; 215 nM in test [5].
